For five molecules, MIC results are on record in DBAASP.

Among the test systems are Bacillus subtilis; Escherichia coli W160-37; Micrococcus luteus MT166; Escherichia coli 117; Escherichia coli 218; Escherichia coli 37; Klebsiella pneumoniae; Pseudomonas aeruginosa; Shigella dysenteriae; Staphylococcus aureus 37.
Common to all, as to experiment: ≥ marks a high value that may be exact or a test limit, other limits are often not marked, values filed in µg/mL are converted to µM
Assay [1] concerns Pseudomonas putida NCIM 2102.
Assay [2] has as its system Saccharomyces cerevisiae ATCC 8530.
Assay [3] relates to Staphylococcus aureus ATCC 8530.
In assay [4] the test system is Candida albicans ATCC 2002.
Assay [5] deals with Candida albicans ATCC 90028.
The test system of assay [6] is Candida parapsilosis ATCC 22019.
The test system of assay [7] is Enterobacter cloacae ATCC 13047.
For assay [8], the system named is Enterococcus faecalis ATCC 29212.
The test system of assay [9] is Escherichia coli ATCC 25922.
Assay [10] deals with Klebsiella pneumoniae ATCC 700603.
Assay [11] has as its system Pseudomonas aeruginosa ATCC 27853.
The subject of assay [12] is Pseudomonas aeruginosa CMCCB 1010.
The test system of assay [13] is Staphylococcus aureus ATCC 25923.
Assay [14] deals with Escherichia coli KCTC 2223.
Assay [15] concerns Micrococcus luteus ATCC 10240.
The test system of assay [16] is Salmonella typhimurium KCTC 2370.
Assay [17] relates to Staphylococcus aureus ATCC 15752.
Assay [18] relates to Pseudomonas aeruginosa 253.
In assay [19] the test system is Pseudomonas aeruginosa 910.
The test system of assay [20] is Pseudomonas aeruginosa 919.
Assay [21] has as its system Pseudomonas aeruginosa PAO1.
For assay [22], the system named is Bacillus subtilis ATCC 62037.
Assay [23] concerns Candida albicans ATCC 10231.
Assay [24] concerns Escherichia coli ATCC 27325.
The subject of assay [25] is Pseudomonas putida ATCC 17426.
In assay [26] the test system is Saccharomyces cerevisiae ATCC 44774.
For assay [27], the system named is Salmonella enterica subsp. enterica serovar Enteritidis ATCC 13076.
Assay [28] concerns Streptococcus mutans ATCC 25175.

The structures appear in SMILES notation. In brackets after ≈: the same amount, converted by molar mass.

Turning to `CC[C@H](C)[C@@H]1NC(=O)[C@H](CCSC)NC(=O)[C@H]([C@@H](C)O)NC(=O)[C@@H](NC(=O)[C@@H](N)Cc2ccccc2)CSSC[C@@H](C(=O)N[C@@H](Cc2ccc(O)cc2)C(N)=O)NC(=O)[C@H](CCCN=C(N)N)NC(=O)[C@@H]2CCCN2C(=O)[C@H]([C@@H](C)CC)NC(=O)[C@@H]2CCCN2C1=O` [FCTMIPIPRCY], the MIC in the assay with Bacillus subtilis was 22.3 µM (≈ 29.9 µg/mL); against Escherichia coli W160-37, 29.8 µM (≈ 39.9 µg/mL); against Micrococcus luteus MT166, 14.9 µM (≈ 20 µg/mL); in assay [1] it was 29.8 µM (≈ 39.9 µg/mL); in assay [2], no less than 59.5 µM; in [3] it was 22.3 µM (≈ 29.9 µg/mL).
Take `CC[C@H](C)[C@H](NC(=O)[C@H](C)NC(=O)[C@H](CCCCN)NC(=O)[C@H](CC(C)C)NC(=O)[C@@H](N)CC(N)=O)C(=O)N[C@@H](C)C(=O)N[C@@H](C)C(=O)N[C@@H](CC(C)C)C(=O)N[C@@H](C)C(=O)N[C@@H](CCCCN)C(=O)N[C@@H](CCCCN)C(=O)N[C@@H](CC(C)C)C(=O)N[C@@H](CC(C)C)C(=O)O` [NLKAIAALAKKLL]: the MIC in [4] worked out at 7.32 µM (≈ 10 µg/mL); in assay [5], 7.32 µM (≈ 10 µg/mL); in assay [6] it was 29.3 µM (≈ 40 µg/mL); in assay [7], 7.32 µM (≈ 10 µg/mL); in [8] it was 3.66 µM (≈ 5 µg/mL); against Escherichia coli 117 it was 14.6 µM (≈ 20 µg/mL). Moreover, the MIC worked out at 7.32 µM (≈ 10 µg/mL) in the assay on Escherichia coli 218; 3.66 µM (≈ 5 µg/mL) with Escherichia coli 37; 14.6 µM (≈ 20 µg/mL) in assay [9]; 14.6 µM (≈ 20 µg/mL) in [10]; 7.32 µM (≈ 10 µg/mL) against Klebsiella pneumoniae; 29.3 µM (≈ 40 µg/mL) in [11]. The MIC came to 14.6 µM (≈ 20 µg/mL) in assay [12]; 7.32 µM (≈ 10 µg/mL) with Pseudomonas aeruginosa; 14.6 µM (≈ 20 µg/mL) against Shigella dysenteriae; 7.32 µM (≈ 10 µg/mL) against Staphylococcus aureus 37; 3.66 µM (≈ 5 µg/mL) in assay [13].
As for `CC(C)C[C@H](NC(=O)[C@H](CCCCN)NC(=O)[C@H](CCC(N)=O)NC(=O)[C@H](CCCCN)NC(=O)[C@H](CC(C)C)NC(=O)[C@H](CC(C)C)NC(=O)[C@H](CCC(N)=O)NC(=O)[C@H](CC(C)C)NC(=O)[C@H](CC(C)C)NC(=O)[C@@H]1CCCN1C(=O)[C@H](CCCN=C(N)N)NC(=O)[C@H](CC(C)C)NC(=O)[C@H](CC(C)C)NC(=O)[C@@H](N)CCCN=C(N)N)C(=O)N[C@@H](CCCN=C(N)N)C(=O)O` [RLLRPLLQLLKQKLR], the MIC in [14] turned out to be 16 µM (≈ 30.2 µg/mL); in assay [15], 1 µM (≈ 1.89 µg/mL); in assay [16] it was 8 µM (≈ 15.1 µg/mL); in assay [17], 1 µM (≈ 1.89 µg/mL).
As to `CC[C@H](C)[C@H](NC(=O)[C@H](CCCN=C(N)N)NC(=O)[C@H](Cc1c[nH]c2ccccc12)NC(=O)[C@H](CC(C)C)NC(=O)[C@@H](N)CCCN=C(N)N)C(=O)N[C@H](C(=O)N[C@H](C(=O)N[C@H](C(=O)N[C@@H](CCCN=C(N)N)C(=O)N[C@H](C(=O)N[C@@H](CCCCN)C(=O)N[C@@H](CCCN=C(N)N)C(N)=O)C(C)C)[C@@H](C)CC)C(C)C)C(C)C` [RLWRIVVIRVKR], the MIC was 16 µM (≈ 25.5 µg/mL) in assay [18], no less than 32 µM in assay [19], no less than 32 µM in assay [20] and 16 µM (≈ 25.5 µg/mL) in assay [21].
Take `CC[C@H](C)[C@H](NC(=O)[C@@H]1CCCN1C(=O)[C@H](Cc1c[nH]c2ccccc12)NC(=O)[C@H](CCC(N)=O)NC(=O)[C@H](CCCN=C(N)N)NC(=O)[C@@H](NC(=O)[C@@H](NC(=O)[C@@H](N)CCCN=C(N)N)C(C)C)C(C)C)C(=O)NCC(=O)N[C@@H](CCCN=C(N)N)C(=O)N[C@H](C(=O)N[C@H](C(=O)N[C@@H](CCCN=C(N)N)C(=O)N[C@@H](CCCN=C(N)N)C(=O)N[C@H](C(=O)N[C@H](C(=O)N[C@@H](CCCN=C(N)N)C(=O)N[C@@H](CCCN=C(N)N)C(=O)N[C@H](C(=O)N[C@H](C(=O)N[C@@H](CCCN=C(N)N)C(=O)N[C@@H](Cc1ccc(O)cc1)C(=O)O)C(C)C)C(C)C)C(C)C)C(C)C)C(C)C)C(C)C` [RVVRQWPIGRVVRRVVRRVVRY]: the MIC in assay [22] turned out to be 0.713 µM (≈ 2 µg/mL); in assay [23], 1.43 µM (≈ 4 µg/mL); in assay [24] it was 1.43 µM (≈ 4 µg/mL); in [25], 0.713 µM (≈ 2 µg/mL); in [26], 0.356 µM (≈ 1 µg/mL); in assay [27], 0.713 µM (≈ 2 µg/mL). The MIC in assay [17] and in assay [28] was 0.713 µM (≈ 2 µg/mL) each time.

What is called MIC is the least concentration at which growth counts as inhibited.
